Key:
[1] = tested on: HGC-27; test: Cytotoxicity against human HGC27 cells after 48 hrs by MTT assay; assay type: functional, cell-based; conditions: HGC-27, 48 h
[2] = tested on: B16; test: Cytotoxicity against mouse B16 cells after 48 hrs by MTT assay; assay type: functional, cell-based; conditions: B16, 48 h
[3] = tested on: HEK293; test: Cytotoxicity against HEK293 cells after 48 hrs by MTT assay; assay type: cell-based; conditions: Homo sapiens, HEK293, 48 h
[4] = tested on: HEK293; test: Cell cycle arrest in HEK293 cells assessed as accumulation at G2/M phase at 0.5 uM after 24 hrs by flow cytometry; assay type: functional, Homo sapiens
[5] = tested on: HEK293; test: Cell cycle arrest in HEK293 cells assessed as accumulation at G2/M phase at 10 uM after 24 hrs by flow cytometry; assay type: functional, Homo sapiens
[6] = tested on: HEK293; test: Cell cycle arrest in HEK293 cells assessed as accumulation at G2/M phase at 5 nM after 24 hrs by flow cytometry; assay type: functional, Homo sapiens
[7] = tested on: HEK293; test: Cell cycle arrest in HEK293 cells assessed as accumulation at S phase at 2.5 uM after 24 hrs by flow cytometry; assay type: functional, Homo sapiens
[8] = tested on: HEK293; test: Cell cycle arrest in HEK293 cells assessed as accumulation at G1 phase at 5 nM after 24 hrs by flow cytometry; assay type: functional, Homo sapiens
[9] = tested on: HEK293; test: Cell cycle arrest in HEK293 cells assessed as accumulation at G1 phase at 5 uM after 24 hrs by flow cytometry; assay type: functional, Homo sapiens
[10] = tested on: HEK293; test: Cell cycle arrest in HEK293 cells assessed as accumulation at S phase at 0.5 uM after 24 hrs by flow cytometry; assay type: functional, Homo sapiens
[11] = tested on: HEK293; test: Cell cycle arrest in HEK293 cells assessed as accumulation at G1 phase at 0.5 […] after 24 hrs by flow cytometry; assay type: functional, Homo sapiens
[12] = tested on: HEK293; test: Cell cycle arrest in HEK293 cells assessed as accumulation at S phase at 5 nM after 24 hrs by flow cytometry; assay type: functional, Homo sapiens
[13] = tested on: HEK293; test: Cell cycle arrest in HEK293 cells assessed as accumulation at G2/M phase at 2.5 uM after 24 hrs by flow cytometry; assay type: functional, Homo sapiens
[14] = tested on: HEK293; test: Cell cycle arrest in HEK293 cells assessed as accumulation at S phase at 5 uM after 24 hrs by flow cytometry; assay type: functional, Homo sapiens
[15] = tested on: HEK293; test: Cell cycle arrest in HEK293 cells assessed as accumulation at G1 phase at 2.5 uM after 24 hrs by flow cytometry; assay type: functional, Homo sapiens
[16] = tested on: HEK293; test: Cell cycle arrest in HEK293 cells assessed as accumulation at S phase at 10 uM after 24 hrs by flow cytometry; assay type: functional, Homo sapiens
[17] = tested on: HEK293; test: Cell cycle arrest in HEK293 cells assessed as accumulation at G2/M phase at 5 uM after 24 hrs by flow cytometry; assay type: functional, Homo sapiens
[18] = tested on: HEK293; test: Cell cycle arrest in HEK293 cells assessed as accumulation at G1 phase at 10 uM after 24 hrs by flow cytometry; assay type: functional, Homo sapiens

| Compound | IC50 [1] [µM] | IC50 [2] [µM] | IC50 [3] [µM] | further results |
| --- | --- | --- | --- | --- |
| C[C@H](CO)c1cc2c(c(O)c1O[C@@H]1O[C@H](CO)[C@@H](O)[C@H](O)[C@H]1O)[C@@]1(C)CC[C@H](O[C@@H]3O[C@H](CO)[C@@H](O)[C@H](O)[C@H]3O)C(C)(C)[C@@H]1CC2 | > 10 | > 10 | > 10 |  |
| CC1=C(C)C2=CC(=O)c3c(O)c4c(c(O)c3[C@@]2(C)CC1)OC(C)C4 (some centres undefined) | 5.3 | 6.4 | 1.2 | Activity [4]: 23.57%; Activity [5]: 34.88%; Activity [6]: 16.14%; Activity [7]: 40.45%; Activity [8]: 50.14%; Activity [9]: 29.5%; Activity [10]: 31.01%; Activity [11]: 45.43%; Activity [12]: 33.72%; Activity [13]: 16.12%; Activity [14]: 46.58%; Activity [15]: 43.44%; Activity [16]: 42.62%; Activity [17]: 23.92%; Activity [18]: 22.5% |
| CC1=C(C)C2=CC(=O)c3c(c(O)c4oc(C)cc4c3O)[C@@]2(C)CC1=O | > 10 | > 10 | > 10 |  |
| CC1=C(CO)C2=CC(=O)c3c(c(O)c4oc(C)cc4c3O)[C@@]2(C)CC1=O | > 10 | > 10 | > 10 |  |
| C[C@H](CO)c1cc2c(c(O)c1O[C@@H]1O[C@H](CO)[C@@H](O)[C@H](O)[C@H]1O)[C@@]1(C)CCC[C@](C)(C(=O)O[C@@H]3O[C@H](CO)[C@@H](O)[C@H](O)[C@H]3O)[C@@H]1CC2 | > 10 | > 10 | > 10 |  |
| C[C@H](CO)c1cc2c(c(O)c1O[C@@H]1O[C@H](CO)[C@@H](O)[C@H](O)[C@H]1O)[C@@]1(C)CCC[C@](C)(CO[C@@H]3O[C@H](CO)[C@@H](O)[C@H](O)[C@H]3O)[C@@H]1CC2 | > 10 | > 10 | > 10 |  |
| CC1=C(C(=O)O)[C@@H]2CC(=O)c3cc(CC(C)O)c(O[C@@H]4O[C@H](CO)[C@@H](O)[C@H](O)[C@H]4O)c(O)c3[C@@]2(C)CC1 (some centres undefined) | > 10 | > 10 | > 10 |  |
| C[C@H](CO)c1cc2c(c(O)c1O[C@@H]1O[C@H](CO)[C@@H](O)[C@H](O)[C@H]1O)[C@@]1(C)CC[C@H](O)C(C)(C)[C@@H]1CC2 | > 10 | > 10 | > 10 |  |

Source: ChEMBL document CHEMBL1149896, “Abietane diterpenoids from Clerodendrum bungei” (J Nat Prod, 2008)
